Assay results published in patent publication US20160291027A1, “METHODS FOR […] ABILITY OF A Z[…] COMPOUND TO TREAT CANCER” (Eisai R&D Management Co., Ltd., priority 2007, published 2016).
pIC50: −log10 of the molar value.

How the values were obtained:
[1] = system: BRAF-mutated xenograft models (breast, colon, and melanoma cell lines); assay: Other xenograft models, BRAF-mutated; format: in vivo, mice; conditions: 40 mg/kg i.v. QD×5 for 2 weeks
Protocol: Additionally, one, five, and seven out of eight animals in the groups treated with Compound 106 at doses of 10, 20, or 40 mg/kg, respectively, were tumor-free at the end of the study on day 59. […] Compound 106 was also tested in other xenograft models, in which BRAF-mutated cells, including breast, colon, and melanoma cell lines, or wildtype cells, including pancreatic cell lines, were transplanted subcutaneously into female nude mice. Compound 106 or a vehicle control was administered intravenously.

[2] = system: IL-6 secretion by LOX human melanoma cells; assay: IL-6 secretion by LOX melanoma cells (ELISA); format: cell-based; conditions: 24 hours
Protocol: Compound 106 (5.0 mg) was weighed and dissolved in 100% anhydrous DMSO (dimethyl sulfoxide, Sigma-Aldrich®, St. Louis, Mo.) to produce a 10 mmol/L stock solution of 3.89 mg/mL. Aliquots of the 10 mmol/L stock solution were stored at −80° C. Then, on each day of an experiment, an aliquot of the stock solution was thawed and diluted 1:10 by adding RPMI-1640 culture medium to obtain a 1 mmol/L solution. Four serial 1:10 dilutions were made from 1 mmol/L working solution by adding 10% DMSO in RPMI-1640 culture medium to obtain 4 additional working solutions. Each of these working stock solutions was further diluted with culture media to obtain diluted working solutions ranging from 1 nmol/L to 10,000 nmol/L. Five mL of each of these diluted working solutions was added to each dish.
LOX human melanoma cells were originally obtained from the DCTD Tumor Repository (Frederick, Md.). The cells were grown in monolayer cultures in RPMI-1640 growth media containing 10% fetal bovine serum (FBS) at 37° C. in a 5% CO2 humidified incubator.
LOX human melanoma cells were plated at 1×10^6 cells into 100 mm dishes. After 48 hours, cells were washed three times with phosphate buffered saline (PBS) and were cultured with RPMI-1640 medium containing 0.1% FBS for another 24 hours. After removing the cell culture medium, fresh RPMI-1640 medium containing Compound 106 (1, 10, 100, 1000, or 10,000 nmol/L) was added to each culture dish and incubated for 24 hours (see Table 5). The control received 0.1% DMSO in RPMI-1640 culture medium alone to measure spontaneous secretion of IL-6 and IL-8. Three separate experiments were performed in duplicate to calculate the mean±SEM.
After a 24 hour incubation with Compound 106 or 0.1% DMSO, 5 mL of cell culture supernatant was collected. Any particulate material was removed by centrifugation. All samples were stored in the −80° C. freezer until analysis. Human IL-6 or IL-8 was determined using an ELISA kit (Human IL-8 ELISA Set, Catalog No. 555244, BD Biosciences, San Diego, Calif. and Human IL-6 ELISA Set, Catalog No. 555220, BD Biosciences, San Diego, Calif.) with the assay procedure provided by the kits. Absorbance was read on a VERSAMAX™ (Molecular Devices, now part of MDS Analytical Technologies, Sunnyvale Calif.).
After removing the cell culture supernatant, 1.0 mL of trypsin was added to the cells for 3 minutes, and then 4 mL of media containing 10% FBS was added for cell counting. Cells were counted using a hematocytometer (Bright Line Counting Chamber, Hausser Scientific, Horsham, Pa.) with a depth of 0.1 mm. The total number of cells was calculated as follows:
Total number of cells in 5 mL=C×10^4/mL×5 mL(C: actual cell count in 1 mm^2)
The level of IL-6 or IL-8 was determined as ng/1×10^6 cells. Inhibition of IL-6 or IL-8 secretion by Compound 106 was expressed as percent of control using the formula below:
Percent of control=(value of treatment−mean value of blank)/(value of control−mean value of blank)×100
The software, Graphpad Prism® (ver. 4, San Diego, Calif.) was used for calculation of mean IC50 values.

[3] = system: SF-295; assay: CellTiter-Glo cell growth assay; format: cell-based, human; conditions: SF-295, BRAF wild-type glioblastoma, elevated pAKT; 10 μmol/L to 0.0003 μmol/L
Protocol: In order to determine whether Compound 106 resistance is associated with constitutive AKT phosphorylation as a result of activation of the PI3K signaling pathway, a panel of 10 BRAF mutated melanoma cell lines and a BRAF wild-type glioblastoma cancer cell line, SF-295, were tested using different concentrations of Compound 106 ranging from 10 μmol/L to 0.0003 μmol/L.
All assays were performed in a 96 well format. For these cell lines, protein lysates were collected in a separate experiment, which allowed for the evaluation of the constitutive level of AKT phosphorylation and correlation between the level of phosphorylated AKT (pAKT) and Compound 106 sensitivity. Cell growth was assessed using CellTiter-Glo® Luminescent Cell Viability Assay (Promega). Phosphorylated AKT protein was analyzed by Western blotting, with total AKT being used as a loading control.

CCNc1cc(O)c2c(c1)/C=C/C[C@H](O)[C@H](O)C(=O)/C=C\[C@@H](C)[C@H](C)OC2=O [Compound 106]
tumor regression ([1]; strongest effect of the range): about 73% | tumor growth inhibition ([1]; weakest effect of the range: tumor stasis (but not regression) during treatment): > 80% | IL-6 (ng/million cells) Mean ([2]; 1 nmol/L): 9.9 ng/million cells | IL-6 (pg/million cells) Experiment 1 ([2]; 1 nmol/L): 5890 pg/million cells | IL-6 (pg/million cells) Experiment 2 ([2]; 1 nmol/L): 13741 pg/million cells | IL-6 (pg/million cells) Experiment 3 ([2]; 1 nmol/L): 10140 pg/million cells | Protein level of IL-6, Percent (%) of control Experiment 1 ([2]; 1 nmol/L): 46.1% | Protein level of IL-6, Percent (%) of control Experiment 2 ([2]; 1 nmol/L): 53.6% | Protein level of IL-6, Percent (%) of control Experiment 3 ([2]; 1 nmol/L): 115.0% | IL-6 (ng/million cells) Mean ([2]; 10 nmol/L): 8.7 ng/million cells | IL-6 (pg/million cells) Experiment 1 ([2]; 10 nmol/L): 3253 pg/million cells | IL-6 (pg/million cells) Experiment 2 ([2]; 10 nmol/L): 12105 pg/million cells | IL-6 (pg/million cells) Experiment 3 ([2]; 10 nmol/L): 10745 pg/million cells | Protein level of IL-6, Percent (%) of control Experiment 1 ([2]; 10 nmol/L): 21.5% | Protein level of IL-6, Percent (%) of control Experiment 2 ([2]; 10 nmol/L): 47.1% | Protein level of IL-6, Percent (%) of control Experiment 3 ([2]; 10 nmol/L): 121.3% | IL-6 (ng/million cells) Mean ([2]; 100 nmol/L): 0.5 ng/million cells | IL-6 (pg/million cells) Experiment 1 ([2]; 100 nmol/L): 347 pg/million cells | IL-6 (pg/million cells) Experiment 2 ([2]; 100 nmol/L): 643 pg/million cells | IL-6 (pg/million cells) Experiment 3 ([2]; 100 nmol/L): 485 pg/million cells | Protein level of IL-6, Percent (%) of control Experiment 1 ([2]; 100 nmol/L): 2.9% | Protein level of IL-6, Percent (%) of control Experiment 2 ([2]; 100 nmol/L): 2.5% | Protein level of IL-6, Percent (%) of control Experiment 3 ([2]; 100 nmol/L): 5.5% | IL-6 (ng/million cells) Mean ([2]; 1,000 nmol/L): 0.6 ng/million cells | IL-6 (pg/million cells) Experiment 1 ([2]; 1,000 nmol/L): 547 pg/million cells | IL-6 (pg/million cells) Experiment 2 ([2]; 1,000 nmol/L): 986 pg/million cells | IL-6 (pg/million cells) Experiment 3 ([2]; 1,000 nmol/L): 257 pg/million cells | Protein level of IL-6, Percent (%) of control Experiment 1 ([2]; 1,000 nmol/L): 4.6% | Protein level of IL-6, Percent (%) of control Experiment 2 ([2]; 1,000 nmol/L): 3.8% | Protein level of IL-6, Percent (%) of control Experiment 3 ([2]; 1,000 nmol/L): 2.9% | IL-6 (ng/million cells) Mean ([2]; 10,000 nmol/L): 0.2 ng/million cells | IL-6 (pg/million cells) Experiment 1 ([2]; 10,000 nmol/L): 165 pg/million cells | IL-6 (pg/million cells) Experiment 2 ([2]; 10,000 nmol/L): 337 pg/million cells | IL-6 (pg/million cells) Experiment 3 ([2]; 10,000 nmol/L): 132 pg/million cells | Protein level of IL-6, Percent (%) of control Experiment 1 ([2]; 10,000 nmol/L): 1.3% | Protein level of IL-6, Percent (%) of control Experiment 2 ([2]; 10,000 nmol/L): 1.3% | Protein level of IL-6, Percent (%) of control Experiment 3 ([2]; 10,000 nmol/L): 1.6% | activity at 0.001 µM ([2]; Homo sapiens, LOX, 1 nmol/L, read-out: Protein level of IL-6, Mean % of control): 72.2% | activity at 0.01 µM ([2]; Homo sapiens, LOX, 10 nmol/L, read-out: Protein level of IL-6, Mean % of control): 65% | activity at 0.1 µM ([2]; Homo sapiens, LOX, 100 nmol/L, read-out: Protein level of IL-6, Mean % of control): 3.6% | activity at 1 µM ([2]; Homo sapiens, LOX, 1,000 nmol/L, read-out: Protein level of IL-6, Mean % of control): 3.8% | activity at 10 µM ([2]; Homo sapiens, LOX, 10,000 nmol/L, read-out: Protein level of IL-6, Mean % of control): 1.4% | pIC50 ([2]; Homo sapiens, LOX melanoma cell line, read-out: mean calculated IC50, IL-6 protein level): 7.66 | Sensitivity of cell line [3]: resistant
